{"source": "paper PMC4912613", "about": "“A broad analysis of resistance development in the malaria parasite” (Nature Communications, 2016)", "key": {"Hepatocyte toxicity": {"assay": "Hepatocyte toxicity", "assay_type": "cell-based, human", "conditions": "human; read-out: HepG2 EC50 (hepatocyte toxicity)", "outline": "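HepG2 cells were pretreated with compound for 2 h, then infected with fresh P. berghei sporozoites. After 48 h, exoerythrocytic-form viability was read by BrightGlo luminescence; hepatocyte toxicity was tested in parallel. EC50s came from 12-point curves run in duplicate, starting at 5 μM or 50 μM.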"}, "[1]": {"system": "MMV008149-resistant clones (Dd2 parent; cytochrome bc1 G131S, Y126C, V284L)", "assay": "EC50 assay on MMV008149-resistant lines", "assay_type": "cell-based", "conditions": "Plasmodium falciparum, six MMV008149-resistant clones", "procedure": "Genomic DNA (gDNA) was isolated from the Dd2 parent and six clones (two clones per resistant selection flask), and samples were prepared for whole-genome sequencing. Samples were sequenced to >60 × coverage using paired end reads and aligned to the 3D7 reference genome and variants were called with HaplotypeCaller (GATK). Comparing the nucleotide variation found in the resistant samples to the Dd2 parent clone, which had been isolated immediately before selections, we identified genomic changes that had presumably occurred during selection. Following this comparison, 19 mutations were identified: 11 SNVs and eight insertion/deletions (INDELs) (Table 2, Supplementary Data 2). INDEL mutations were comprised of intergenic (three), codon INDEL (three), intronic (one) and frame-shift (one) mutations. […] Comparing all six clones, one gene was mutated across all samples: cytochrome bc1. […]\nAlternatively, a SYBR Green-based proliferation approach was used for the 72-h assay, as previously described. […] Following incubation, 10 × SYBR Green I (Invitrogen; supplied in 10,000 × concentration) in lysis buffer ([…], 5 mM EDTA, 0.16% Saponin wt per vol and 1.6% Triton X vol per vol) was added to the wells and the plates were incubated overnight at room temperature before plate reading. […]"}, "[2]": {"system": "resistant parasites generated by MMV007564", "assay": "Cross-resistance to parasites selected with MMV007564", "assay_type": "cell-based, Plasmodium falciparum", "excerpt": "While we found an overall lack of pre-existing resistance, analysing the onset of resistance was critical, as compounds resulting in rapid resistance are not ideal for clinical development. We therefore sought to create drug-resistant parasites using a variety of different selection methods. We implemented either a high-dose method or a ramp-up/pulse method for our in vitro selections. Two of the 50 compounds—MMV028895 and MMV665824—were removed from the selection study during experimentation. […] Out of the remaining 48 compounds, resistant parasites were obtained for 23 (Supplementary Data 1). As each selection was performed in triplicate with three independent cultures, we succeeded in generating a total of 66 resistant cultures. Parasites resistant to MMV026596 were not obtained despite 100 days of selection, but the cultures acquired hypersensitivity to mefloquine with a 10-fold reduction in EC50 compared with its parental line, 3D7. For the remaining 24 compounds, acquisition of resistant parasites was unsuccessful despite numerous attempts over an extensive period of time."}}, "data": [{"smiles": "CN(C)S(=O)(=O)c1cc(-c2ccc3nccc(-c4cccc(S(N)(=O)=O)c4)c3c2)cnc1N", "note": "[MMV024038]", "values": [{"measurement": "EC50", "setting": "Hepatocyte toxicity", "result": 0.146, "unit": "µM"}]}, {"smiles": "Cc1c(C)n(Cc2ccc(F)cc2)c2ccc(C(=O)NCc3ccco3)cc12", "note": "[MMV008149]", "values": [{"measurement": "EC50", "setting": "[1]", "result": "1.67 to 10.1", "unit": "µM"}]}, {"smiles": "CN(C)CCCN(C)C(=O)C1Cc2cc(-c3ccccc3)ccc2N1S(=O)(=O)c1ccccc1", "note": "(stereo not drawn) [MMV028895]", "values": [{"measurement": "cross-resistance to resistant parasites generated by MMV007564", "setting": "[2]", "result": "exhibited cross-resistance"}]}]}
